Reference: patent publication US20060287247A1, “Halogen-substituted thienyl compounds” (priority 2001, published 2006)

Assays:
[1] = tested on: S. aureus ATCC 29213; experiment: NCCLS broth microdilution MIC; type: cell-based, Staphylococcus aureus; conditions: A = S. aureus ATCC 29213
[2] = tested on: E. faecalis ATCC 29212; experiment: NCCLS broth microdilution MIC; type: cell-based, Enterococcus faecalis; conditions: B = E. faecalis ATCC 29212
[3] = tested on: B. cereus ATCC 11778; experiment: NCCLS broth microdilution MIC; type: cell-based, Bacillus cereus; conditions: C = B. cereus ATCC 11778
[4] = tested on: E. coli ATCC 25922; experiment: NCCLS broth microdilution MIC; type: cell-based; conditions: D = E. coli ATCC 25922
[5] = tested on: C. albicans ATCC 38247; experiment: NCCLS broth microdilution MIC (antifungal); type: cell-based; conditions: E = C. albicans ATCC 38247
[6] = tested on: S. pneumoniae ATCC 49619; experiment: NCCLS broth microdilution MIC; type: cell-based, Streptococcus pneumoniae; conditions: F = S. pneumoniae ATCC 49619
[7] = tested on: 5′-AAAAAGACAAAAA-3′; type: binding; conditions: DNA sequence 5′-AAAAAGACAAAAA-3′; pH 7.0, 22° C.
Procedure: (§1) A number of compounds according to this invention were screened for their ability to bind to three DNA sites, using DNase I footprinting. Generally, the procedure described in Dervan, WO 98/50582 (1998), was followed.
(§2) A plasmid was prepared by hybridizing two sets of 5′-phosphorylated complementary oligonucleotides, one set being
(§3) The target sites and their complements are identified in bold underline.
(§4) The resulting duplexes were ligated to the large pUC19 AvaI/SalI restriction fragment. The 3′-P32 end-labeled EcoRI/PvuII fragment was prepared by digesting the plasmid with EcoRI and PvuII with simultaneous fill-in using Sequenase v. 2.0, [alpha-P32]-deoxyadenosine-5′-triphosphate, and [alpha-P32]-thymidine-5′-triphosphate, and isolating the cloned fragment by nondenaturing gel electrophoresis. Standard methods were used for all DNA manipulations, including A and G sequencing. See, e.g., Maxam et al., Methods Enzymol., 1980, 65, 499-560; Iverson et al., Methods Enzymol., 1987, 15, 7823-7830; and Sambrook et al., 1989, Molecular Cloning, 2nd ed., Cold Spring Harbor Laboratory Press: Cold Spring Harbor, N.Y.
(§5) Quantitative DNase I footprint titration experiments were carried out as described previously (Dervan, WO 98/50582, 1998, “Dervan '582”) with the following changes. All reactions were carried out in a total volume of 400 μL, with polyamide stock solution or water added to 15,000 cpm radiolabeled restriction fragment affording final solution conditions of 10 mM Tris.HCl, 10 mM KCl, 10 mM MgCl2, 5 mM CaCl2, pH 7.0 and 0.01 nM, 0.1 nM, 1.0 nM, 10.0 nM polyamide or no polyamide for reference lanes. The polyamides were allowed to equilibrate at 22° C. for 16 hr. Footprinting reactions were initiated with addition of 10 μL of a DNase I stock solution (at the appropriate concentration to give ˜50% intact DNA) containing 1 mM DTT and allowed to proceed for 7 min at 22° C. The reactions were stopped, ethanol precipitated, resuspended in loading buffer, heat denatured, and placed on ice as described in Dervan '582. The reaction products were separated on a precast 8% polyacrylamide denaturing sequencing Castaway gel with 32 preformed wells from Stratagene in 1× TBE at 2000 V. Gels were dried according to the manufacturer's instructions and exposed to a storage phosphor screen (Molecular Dynamics). Quantitation and data analysis were carried out as described in Dervan '582.

[8] = tested on: 5′-AAAAAGCAAAAA-3′; type: binding; conditions: DNA sequence 5′-AAAAAGCAAAAA-3′; pH 7.0, 22° C.
Procedure: as §1, §2, §3, §4, §5

[9] = tested on: 5′-AAAAAGTACAAAAA-3′; type: binding; conditions: DNA sequence 5′-AAAAAGTACAAAAA-3′; pH 7.0, 22° C.
Procedure: as §1, §2, §3, §4, §5

| SMILES | Minimum Inhibitory Concentration (MIC) [1] | Minimum Inhibitory Concentration (MIC) [2] | Minimum Inhibitory Concentration (MIC) [3] | Minimum Inhibitory Concentration (MIC) [4] | Minimum Inhibitory Concentration (MIC) [5] | Minimum Inhibitory Concentration (MIC) [6] | Equilibrium Association Constant (Ka) [7] | Equilibrium Association Constant (Ka) [8] | Equilibrium Association Constant (Ka) [9] |
| --- | --- | --- | --- | --- | --- | --- | --- | --- | --- |
| CN1CCCN(C(=O)CCNC(=O)c2cc(NC(=O)c3cc(NC(=O)CCNC(=O)c4cc(NC(=O)c5cc(NC(=O)c6ccc(Br)s6)cn5C)cn4C)cn3C)cn2C)CC1 [Id-16] | >32 µg/mL | >32 µg/mL | >32 µg/mL | >32 µg/mL | >32 µg/mL | +++ (+++ = MIC ≦4) | 5e+10 M⁻¹ | 5e+10 M⁻¹ | ≧1 × 10^11 M^−1 |
| Cn1cc(NC(=O)c2cc(NC(=O)CCNC(=O)c3cc(NC(=O)c4cc(NC(=O)c5ccc(Br)s5)cn4C)cn3C)cn2C)cc1C(=O)NCCC(=O)NCCCCN [Id-17] | + (+ = MIC from 12 to 32, inclusive) | ++ (++ = MIC between 4 and 12) | +++ (+++ = MIC ≦4) | >32 µg/mL | >32 µg/mL | +++ (+++ = MIC ≦4) | ≧1 × 10^11 M^−1 | ≧1 × 10^11 M^−1 | ≧1 × 10^11 M^−1 |
| CN(C)CCCNC(=O)CCNC(=O)c1cc(NC(=O)c2cc(NC(=O)CCNC(=O)c3cc(NC(=O)c4cc(NC(=O)c5ccc(Br)s5)cn4C)cn3C)cn2C)cn1C [Id-18] | >32 µg/mL | ++ (++ = MIC between 4 and 12) | + (+ = MIC from 12 to 32, inclusive) | >32 µg/mL | >32 µg/mL | +++ (+++ = MIC ≦4) | ≧1 × 10^11 M^−1 | ≧1 × 10^11 M^−1 | ≧1 × 10^11 M^−1 |

Further lines, with some results ahead:

| Minimum Inhibitory Concentration (MIC) [1] | Minimum Inhibitory Concentration (MIC) [2] | Minimum Inhibitory Concentration (MIC) [3] | Minimum Inhibitory Concentration (MIC) [4] | Minimum Inhibitory Concentration (MIC) [5] | Minimum Inhibitory Concentration (MIC) [6] | SMILES | Equilibrium Association Constant (Ka) [7] | Equilibrium Association Constant (Ka) [8] | Equilibrium Association Constant (Ka) [9] |
| --- | --- | --- | --- | --- | --- | --- | --- | --- | --- |
| +++ (+++ = MIC ≦4) | +++ (+++ = MIC ≦4) | +++ (+++ = MIC ≦4) | >32 µg/mL | >32 µg/mL | +++ (+++ = MIC ≦4) | Cn1cc(NC(=O)c2cc(NC(=O)CCNC(=O)c3cc(NC(=O)c4cc(NC(=O)c5cc(Br)c(Br)s5)cn4C)cn3C)cn2C)cc1C(=O)NCCC(=O)NCCCCCCN [Id-2] | 5e+08 M⁻¹ | 5e+08 M⁻¹ | 5e+09 M⁻¹ |
| +++ (+++ = MIC ≦4) | +++ (+++ = MIC ≦4) | +++ (+++ = MIC ≦4) | >32 µg/mL | >32 µg/mL | +++ (+++ = MIC ≦4) | CCN(CC)CCCNC(=O)CCNC(=O)c1cc(NC(=O)c2cc(NC(=O)CCNC(=O)c3cc(NC(=O)c4cc(NC(=O)c5cc(Br)c(Br)s5)cn4C)cn3C)cn2C)cn1C [Id-6] | 1e+10 M⁻¹ | 1e+10 M⁻¹ | ≧1 × 10^11 M^−1 |
| +++ (+++ = MIC ≦4) | +++ (+++ = MIC ≦4) | +++ (+++ = MIC ≦4) | >32 µg/mL | >32 µg/mL | +++ (+++ = MIC ≦4) | CN(C)CC(C)(C)CNC(=O)CCNC(=O)c1cc(NC(=O)c2cc(NC(=O)CCNC(=O)c3cc(NC(=O)c4cc(NC(=O)c5cc(Br)c(Br)s5)cn4C)cn3C)cn2C)cn1C [Id-7] | 5e+08 M⁻¹ | 5e+08 M⁻¹ | ≧1 × 10^11 M^−1 |
| +++ (+++ = MIC ≦4) | +++ (+++ = MIC ≦4) | +++ (+++ = MIC ≦4) | >32 µg/mL | >32 µg/mL | +++ (+++ = MIC ≦4) | Cn1cc(NC(=O)c2cc(NC(=O)CCNC(=O)c3cc(NC(=O)c4cc(NC(=O)c5cc(Br)c(Br)s5)cn4C)cn3C)cn2C)cc1C(=O)NCCC(=O)NCCN1CCCCC1 [Id-5] | 2e+10 M⁻¹ | 2e+09 M⁻¹ | 1e+11 M⁻¹ |
